What all share (type): cell-based
Assay [1] has as its system MRSA.
For assay [2], the system named is S. nterica. The assay is described as follows: Minimal inhibitory concentration for bacteriocidal activity. Conditions: MIC; strains in Supp. Info.
Assay [3] concerns K. pneumoniae.
Assay [4] has as its system A. baumanii.
Assay [5] has as its system E. faecium.
Assay [6] deals with E.coli.
The subject of assay [7] is P. aeruginosa.

The values that follow come from PMC3632407 (Chemical communications (Cambridge, England), 2013).

Structures are written as SMILES. Where two headings read alike, the source gives them in different places. Where a SMILES comes first, the peptide text is derived from it.

Turning to `N=C(N)NCCC[C@H](NC(=O)[C@H](CS)NC(=O)[C@H](Cc1ccc(O)cc1)NC(=O)[C@H](Cc1c[nH]c2ccccc12)NC(=O)[C@H](CCCNC(=N)N)NC(=O)[C@@H](N)Cc1c[nH]c2ccccc12)C(N)=O` [Complex 1, WRWYCR-NH2] (H-WRWYCR-NH2), the “Minimal inhibitory concentration for bacteriocidal activity, MRSA” value in assay [1] worked out at 66 µM. For the same compound, in assay [2], the “Minimal inhibitory concentration for bacteriocidal activity, S. nterica” value was 8 µM. Further, in assay [3], the “Minimal inhibitory concentration for bacteriocidal activity, K. pneumoniae” value was determined as 66 µM. In assay [4], the “Minimal inhibitory concentration for bacteriocidal activity, A. baumanii” value amounted to 132 µM. Also, the “Minimal inhibitory concentration for bacteriocidal activity, E. faecium” value in assay [5] was determined as 8 µM. Also, the “Minimal inhibitory concentration for bacteriocidal activity, E.coli” value in assay [6] is 17 µM. Moreover, the “Minimal inhibitory concentration for bacteriocidal activity, P. aeruginosa” value in assay [7] worked out at 33 µM.

For `NC[C@H]1O[C@H](O[C@H]2[C@H](O)[C@@H](O[C@H]3O[C@H](CO)[C@@H](O)[C@H](N)[C@H]3O)[C@H](N)C[C@@H]2N)[C@H](O)[C@@H](O)[C@@H]1O` [kanamycin], in assay [1] (MIC, strains in Supp. Info), the “Minimal inhibitory concentration for bacteriocidal activity, MRSA” value stood at 264 µM. Further, the “Minimal inhibitory concentration for bacteriocidal activity, S. nterica” value in assay [2] stood at 1 µM. In addition, in assay [3] (MIC, strains in Supp. Info), the “Minimal inhibitory concentration for bacteriocidal activity, K. pneumoniae” value stood at 66 µM. In assay [4] (MIC, strains in Supp. Info), the “Minimal inhibitory concentration for bacteriocidal activity, A. baumanii” value is more than 264 µM. For the same compound, in assay [5] (MIC, strains in Supp. Info), the “Minimal inhibitory concentration for bacteriocidal activity, E. faecium” value is more than 264 µM. The “Minimal inhibitory concentration for bacteriocidal activity, E.coli” value in assay [6] (MIC, strains in Supp. Info) is 8 µM. The “Minimal inhibitory concentration for bacteriocidal activity, P. aeruginosa” value in assay [7] (MIC, strains in Supp. Info) worked out at 33 µM.
